Experimental data reported in patent US20260125686A1, “COMPOSITIONS AND METHODS FOR MODULATION OF CFTR” (Cystic Fibrosis Foundation, priority 2022, published 2026).

Target: T1, Del23-27 CFTR protein (Homo sapiens, UniProt P13569)
T1 construct: contain the first 1239 amino acids of a WT CFTR; endogenous in cells; host or cells: 16HBE14o- derived Del23-27 clones 2-H07, 3-B09, 3-D01 (CRISPR genomic deletion)
Assay: TECC-24 conductance assay in D23-27 (Del23-27) clonal lines
Type: cell-based
Description: Electrophysiology. Clonal lines were seeded at a density of 4.5×10^5 cells cm-2 onto HTS Transwell 24-well filter inserts pre-coated with human collagen type IV. Cells were grown as submerged cultures in MEM (Gibco, 11095) containing 10% FBS and 1% Pen/Strep, and incubated at 37° C. and 5% CO2. Cells were treated from both the basolateral and apical side with fresh medium containing either control (vehicle) or test article for the treatment time indicated in the figure legends. After a total of 7 days, 16HBE cells typically formed electrically tight epithelia with a transepithelial resistance (Rt) of 200-600 Ω·cm2 and CFTR-mediated Cl— equivalent current (Ieq) was determined as described below. Prior to functional (Ieq) studies, MEM was replaced with fresh HEPES-buffered (pH 7.4) solutions (assay buffer). A driving force for chloride ions was established through application of a basolateral to apical chloride ion gradient (see buffer composition below). Cell plates were mounted onto an automated robotic assay platform and equilibrated at ˜36° C. for 90 min. After equilibration, transepithelial voltage (Vt) and resistance (Rt) were monitored at ˜5 min intervals using a 24-channel transepithelial current clamp amplifier (TECC-24, EP Design, Bertem, Belgium). Electrode potential differences for each pair of Ag/AgCl voltage electrodes were also monitored at 5 min intervals by taking voltage measurements from a control plate with matching buffer solutions and 16HBE cells that were left untreated. Ieq was calculated from values of Vt and Rt using Ohm's law after correcting for series resistance and (electrode) voltage offsets unrelated to Vt. Ieq traces are plotted as mean±SD (n=3). The first 4 data points reflect baseline Ieq currents prior to sequential stimulation of CFTR with forskolin (10 μM) and VX-770/ivacaftor (1 μM). The last six data points were recorded in the presence of CFTR inhibitor CFTRinh-172 (20 μM). Agonists/antagonists were pre-diluted to 10-fold concentrations in assay buffer and add-ed to either the basolateral (forskolin) or apical (forskolin, VX-770/ivacaftor, and CFTRinh-172) side of the membrane (assay plates only). CFTR-mediated changes in Ieq, (i.e., delta forskolin, delta VX-770, delta CFTRinh-172, or the area under the curve (AUC) between forskolin and CFTRinh-172 addition) are used as a measure of functional CFTR surface expression or treatment-related functional rescue of mutant CFTR. Assay buffer: CFTR-mediated transepithelial currents were recorded using a Cl— concentration gradient. The basolateral solution contained (mM): 137 NaCl, 4 KCl, 1.8 CaCl2, 1 MgCl2, 10 HEPES and D-Glucose, adjusted to pH 7.4 with NaOH/HCl ([CI-] total: 146.6 mM). The apical solution was matched to the basolateral except for (mM): 137 Na-gluconate replaced 137 NaCl ([Cl—] total: 9.6 mM). To assess the functional consequence of forcing intron 22 ApA usage, D23-27 clonal lines 2-H07, 3-B09, 3-D01 were subjected to 48 hours treatment of vehicle control (0.002% DMSO) or VX-445/VX-661 (3/3 μM), and acute in assay addition of VX-770 (1 μM) and CFTR function was assessed using the transepithelial current clamp (TECC) conductance assay. Potentiators/correctors Trikafta restored the function of the Del23-27 CFTR protein to a significant fraction of WT function, as shown in FIG. 11A. Briefly, transepithelial chloride conductance assay (TECC-24 assay) was conducted in WT 16HBE14o- (treated with vehicle), 16HBEge-F508del (treated with VX-809), and Del23-27 clones (treated with VX-445/661), using sequential treatment of forskolin, VX-770, and CFTR inhibitor 172. In the presence of VX-445/VX-661/VX-770 (Trikafta), Del23-27 CFTR protein function was restored, shown as chloride conductance induced by VX-770 and inhibited by to CFTR (inh)-172. CFTR function can be assayed by comparing the induced chloride conductance area under curve (AUC) of the cell lines utilized. […]

T1 sequence (P13569 with tags, fused parts or gaps): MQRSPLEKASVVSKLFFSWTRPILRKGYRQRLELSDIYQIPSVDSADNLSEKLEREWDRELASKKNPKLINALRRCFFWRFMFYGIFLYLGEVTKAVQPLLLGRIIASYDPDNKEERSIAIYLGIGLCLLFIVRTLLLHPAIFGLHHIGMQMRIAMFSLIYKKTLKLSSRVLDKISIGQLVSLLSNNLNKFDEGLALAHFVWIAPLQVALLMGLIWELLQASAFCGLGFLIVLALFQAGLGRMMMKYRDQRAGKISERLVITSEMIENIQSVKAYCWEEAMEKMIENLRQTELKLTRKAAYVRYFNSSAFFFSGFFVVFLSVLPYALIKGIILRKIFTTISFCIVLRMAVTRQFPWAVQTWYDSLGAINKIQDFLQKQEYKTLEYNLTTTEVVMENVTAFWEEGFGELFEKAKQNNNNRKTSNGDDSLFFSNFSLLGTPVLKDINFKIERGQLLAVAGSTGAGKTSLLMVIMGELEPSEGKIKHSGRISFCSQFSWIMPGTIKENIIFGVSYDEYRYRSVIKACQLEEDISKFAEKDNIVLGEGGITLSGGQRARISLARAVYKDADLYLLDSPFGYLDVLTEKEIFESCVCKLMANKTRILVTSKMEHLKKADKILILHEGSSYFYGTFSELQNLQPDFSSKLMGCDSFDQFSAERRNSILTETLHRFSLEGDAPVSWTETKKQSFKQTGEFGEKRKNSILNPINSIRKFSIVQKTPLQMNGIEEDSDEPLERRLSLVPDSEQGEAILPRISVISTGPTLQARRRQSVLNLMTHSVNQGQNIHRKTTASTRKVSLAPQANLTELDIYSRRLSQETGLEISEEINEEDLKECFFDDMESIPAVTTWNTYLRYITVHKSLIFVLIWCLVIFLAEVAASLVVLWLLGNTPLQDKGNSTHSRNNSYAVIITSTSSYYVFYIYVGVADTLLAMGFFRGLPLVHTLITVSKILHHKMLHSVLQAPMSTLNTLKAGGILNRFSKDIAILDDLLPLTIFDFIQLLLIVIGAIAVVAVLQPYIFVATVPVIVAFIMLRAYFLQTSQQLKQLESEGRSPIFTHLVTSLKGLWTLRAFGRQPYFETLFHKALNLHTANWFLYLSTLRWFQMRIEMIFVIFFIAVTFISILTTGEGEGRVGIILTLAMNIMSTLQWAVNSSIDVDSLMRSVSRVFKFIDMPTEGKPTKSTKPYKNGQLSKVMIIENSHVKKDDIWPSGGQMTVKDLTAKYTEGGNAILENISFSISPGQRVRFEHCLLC

Cl— current as WT 16HBE14o- function (FSK only) (2-H07, VX-445/VX-661/VX-770 (3/3/3 μM)): ~42% | maximum CFTR Cl— current, FSK+VX-770 AUC/min (2-H07 clonal line, VX-770 dose escalation, 3.0 μM (+) VX-445/VX-661 (3/3/3 μM)): 50.6 μA/cm^2
Substance: elexacaftor/ivacaftor/tezacaftor [Trikafta]
